# Experimental data: ChEMBL document CHEMBL5518210 (J Med Chem, 2024)
# How the values were obtained:
# in vivo = settings: C57BL/6, mouse, po, 10 mg/kg
# Description: Oral bioavailability in C57BL/6 mouse at 10 mg/kg
# Keap1/Nrf2 = Keap1/Nrf2 (Homo sapiens, UniProt Q14145); assay: Inhibition of His-tagged human Keap1 Kelch domain /FITC-labelled-9mer Nrf2 (unknown origin) protein-protein interaction incubated for 1 hr by fluorescence polarization assay
# [1] = molecular target: Kelch-like ECH-associated protein 1 (Homo sapiens, UniProt Q14145); assay: Binding affinity to biotinylated Keap1 Kelch domain (unknown origin) by SPR method
# [2] = Apparent permeability in human Caco-2 cells incubated for 2 hrs by LC/MS analysis
# [3] = Metabolic stability in human liver microsomes assessed as compound remaining at 5 uM measured upto 60 mins
# [4] = molecular target: Voltage-gated inwardly rectifying potassium channel KCNH2 (Homo sapiens, UniProt Q12809); assay: Inhibition of human ERG by patch clamp assay; type: toxicity
# Cytochrome P450 3A4 = Cytochrome P450 3A4 (Homo sapiens, UniProt P08684); assay: Inhibition of CYP3A4 in human liver microsomes; type: ADME, Microsome
# Cytochrome P450 1A2 = molecular target: T1, Cytochrome P450 1A2 (Homo sapiens, UniProt P05177); assay: Inhibition of CYP1A2 in human liver microsomes; type: ADME, Microsome
# T1 sequence (P05177 whole entry): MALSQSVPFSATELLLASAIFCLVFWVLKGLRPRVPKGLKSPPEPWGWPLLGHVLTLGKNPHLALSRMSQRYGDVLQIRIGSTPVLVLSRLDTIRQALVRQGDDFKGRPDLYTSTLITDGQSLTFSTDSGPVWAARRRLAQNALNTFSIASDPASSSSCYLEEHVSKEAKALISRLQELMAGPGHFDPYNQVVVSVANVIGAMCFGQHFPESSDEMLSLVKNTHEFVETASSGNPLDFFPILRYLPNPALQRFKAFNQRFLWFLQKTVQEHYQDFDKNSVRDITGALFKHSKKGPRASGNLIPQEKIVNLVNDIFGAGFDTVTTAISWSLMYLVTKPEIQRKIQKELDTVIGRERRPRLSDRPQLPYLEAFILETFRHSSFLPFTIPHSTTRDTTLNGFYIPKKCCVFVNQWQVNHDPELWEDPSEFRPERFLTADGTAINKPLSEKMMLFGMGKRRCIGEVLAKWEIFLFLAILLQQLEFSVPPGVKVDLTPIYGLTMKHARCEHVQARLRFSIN
# Cytochrome P450 2C8 = molecular target: T2, Cytochrome P450 2C8 (Homo sapiens, UniProt P10632); assay: Inhibition of CYP2C8 in human liver microsomes; type: ADME, Microsome
# T2 sequence (P10632 whole entry): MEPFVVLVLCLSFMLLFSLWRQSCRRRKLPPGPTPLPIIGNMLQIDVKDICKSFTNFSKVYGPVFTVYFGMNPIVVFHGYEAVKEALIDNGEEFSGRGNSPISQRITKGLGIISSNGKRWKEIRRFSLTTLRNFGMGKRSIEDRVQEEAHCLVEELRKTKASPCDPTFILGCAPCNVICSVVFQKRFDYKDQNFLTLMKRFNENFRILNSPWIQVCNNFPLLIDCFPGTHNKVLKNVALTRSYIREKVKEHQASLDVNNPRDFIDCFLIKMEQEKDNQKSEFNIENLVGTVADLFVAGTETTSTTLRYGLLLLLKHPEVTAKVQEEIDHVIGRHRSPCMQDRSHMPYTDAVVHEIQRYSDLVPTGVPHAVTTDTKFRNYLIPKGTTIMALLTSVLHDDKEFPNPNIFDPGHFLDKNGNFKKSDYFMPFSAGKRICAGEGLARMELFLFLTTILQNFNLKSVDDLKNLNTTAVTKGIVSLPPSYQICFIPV
# Cytochrome P450 2C9 = Cytochrome P450 2C9 (Homo sapiens, UniProt P11712); assay: Inhibition of CYP2C9 in human liver microsomes; type: ADME, Microsome
# Cytochrome P450 2C19 = Cytochrome P450 2C19 (Homo sapiens, UniProt P33261); assay: Inhibition of CYP2C19 in human liver microsomes; type: ADME, Microsome
# Cytochrome P450 2D6 = Cytochrome P450 2D6 (Homo sapiens, UniProt P10635); assay: Inhibition of CYP2D6 in human liver microsomes; type: ADME, Microsome
# Sequence of Cytochrome P450 2D6 (P10635 whole entry): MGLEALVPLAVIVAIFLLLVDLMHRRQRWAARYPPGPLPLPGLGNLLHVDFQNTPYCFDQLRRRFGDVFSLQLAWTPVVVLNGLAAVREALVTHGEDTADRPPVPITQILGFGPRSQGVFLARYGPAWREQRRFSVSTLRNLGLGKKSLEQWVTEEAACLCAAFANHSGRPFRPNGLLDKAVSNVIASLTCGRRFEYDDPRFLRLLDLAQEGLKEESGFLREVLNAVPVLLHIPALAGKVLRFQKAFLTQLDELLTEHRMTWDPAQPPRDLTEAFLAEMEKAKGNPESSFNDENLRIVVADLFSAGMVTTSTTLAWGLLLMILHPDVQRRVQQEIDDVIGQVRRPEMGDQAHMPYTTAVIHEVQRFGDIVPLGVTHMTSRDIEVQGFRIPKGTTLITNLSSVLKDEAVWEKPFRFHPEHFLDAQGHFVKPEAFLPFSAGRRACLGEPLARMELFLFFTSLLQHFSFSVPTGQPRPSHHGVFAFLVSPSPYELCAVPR
# Sequence of Cytochrome P450 2C19 (P33261 whole entry): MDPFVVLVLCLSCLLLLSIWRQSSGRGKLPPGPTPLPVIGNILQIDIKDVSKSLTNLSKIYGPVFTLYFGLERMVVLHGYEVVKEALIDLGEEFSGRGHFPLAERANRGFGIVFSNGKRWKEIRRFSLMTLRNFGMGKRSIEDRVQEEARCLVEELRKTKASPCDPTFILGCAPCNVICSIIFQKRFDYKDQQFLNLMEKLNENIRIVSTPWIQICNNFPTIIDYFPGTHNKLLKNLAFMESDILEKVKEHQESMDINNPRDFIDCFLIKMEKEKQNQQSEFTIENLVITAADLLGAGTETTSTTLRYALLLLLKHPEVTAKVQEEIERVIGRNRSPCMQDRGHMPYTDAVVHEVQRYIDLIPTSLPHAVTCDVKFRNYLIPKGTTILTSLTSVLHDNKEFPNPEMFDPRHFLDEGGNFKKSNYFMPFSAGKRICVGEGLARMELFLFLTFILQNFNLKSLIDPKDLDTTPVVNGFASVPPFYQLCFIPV
# Sequence of Keap1/Nrf2 (Q16236 whole entry, the tested form may be a part): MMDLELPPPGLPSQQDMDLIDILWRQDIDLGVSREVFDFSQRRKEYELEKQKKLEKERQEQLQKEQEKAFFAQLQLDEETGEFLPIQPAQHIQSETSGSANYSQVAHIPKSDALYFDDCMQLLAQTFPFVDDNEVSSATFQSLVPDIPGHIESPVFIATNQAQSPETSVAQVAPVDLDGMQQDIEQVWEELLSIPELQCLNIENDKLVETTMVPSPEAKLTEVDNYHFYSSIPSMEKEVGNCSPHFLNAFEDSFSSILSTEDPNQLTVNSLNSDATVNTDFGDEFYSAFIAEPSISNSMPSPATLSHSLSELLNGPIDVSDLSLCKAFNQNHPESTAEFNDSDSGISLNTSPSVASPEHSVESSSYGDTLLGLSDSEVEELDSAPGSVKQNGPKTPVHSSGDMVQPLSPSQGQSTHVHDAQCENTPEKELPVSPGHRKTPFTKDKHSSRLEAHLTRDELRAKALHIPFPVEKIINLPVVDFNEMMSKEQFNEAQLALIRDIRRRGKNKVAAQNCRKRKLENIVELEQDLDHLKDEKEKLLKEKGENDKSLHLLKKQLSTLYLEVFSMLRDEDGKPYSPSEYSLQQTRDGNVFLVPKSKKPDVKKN
# Sequence of Keap1/Nrf2 (Q14145 whole entry, the tested form may be a part): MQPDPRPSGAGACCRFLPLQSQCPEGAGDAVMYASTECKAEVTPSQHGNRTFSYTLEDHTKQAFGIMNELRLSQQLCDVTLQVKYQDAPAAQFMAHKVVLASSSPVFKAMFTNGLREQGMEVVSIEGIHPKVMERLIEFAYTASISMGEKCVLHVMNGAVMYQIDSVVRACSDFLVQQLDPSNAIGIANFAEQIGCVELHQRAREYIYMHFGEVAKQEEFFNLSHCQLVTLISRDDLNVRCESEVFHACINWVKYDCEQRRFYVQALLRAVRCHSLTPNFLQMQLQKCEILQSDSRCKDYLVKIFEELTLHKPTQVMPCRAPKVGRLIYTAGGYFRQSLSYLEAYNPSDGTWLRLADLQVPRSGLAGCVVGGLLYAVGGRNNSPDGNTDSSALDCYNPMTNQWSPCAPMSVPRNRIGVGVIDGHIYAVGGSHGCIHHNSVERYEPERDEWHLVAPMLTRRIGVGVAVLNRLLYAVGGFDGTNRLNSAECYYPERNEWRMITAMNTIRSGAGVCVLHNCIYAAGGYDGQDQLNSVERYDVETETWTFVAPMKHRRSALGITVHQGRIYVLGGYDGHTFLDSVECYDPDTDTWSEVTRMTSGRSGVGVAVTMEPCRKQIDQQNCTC
# Sequence of Cytochrome P450 3A4 (P08684 whole entry): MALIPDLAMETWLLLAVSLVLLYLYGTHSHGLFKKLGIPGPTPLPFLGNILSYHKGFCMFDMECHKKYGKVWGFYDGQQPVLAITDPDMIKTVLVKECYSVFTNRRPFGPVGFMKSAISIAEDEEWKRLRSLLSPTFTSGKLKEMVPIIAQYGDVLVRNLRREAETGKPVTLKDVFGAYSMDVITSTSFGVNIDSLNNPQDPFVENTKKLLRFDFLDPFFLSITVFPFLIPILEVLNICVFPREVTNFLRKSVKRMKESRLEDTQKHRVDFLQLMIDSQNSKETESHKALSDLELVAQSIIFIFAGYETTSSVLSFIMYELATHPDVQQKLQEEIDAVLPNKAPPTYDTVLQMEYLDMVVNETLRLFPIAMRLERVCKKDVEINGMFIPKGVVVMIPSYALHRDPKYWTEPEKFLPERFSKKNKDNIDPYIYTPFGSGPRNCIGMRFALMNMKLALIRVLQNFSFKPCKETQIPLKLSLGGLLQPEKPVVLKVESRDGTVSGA
# Sequence of Voltage-gated inwardly rectifying potassium channel KCNH2 (Q12809 whole entry): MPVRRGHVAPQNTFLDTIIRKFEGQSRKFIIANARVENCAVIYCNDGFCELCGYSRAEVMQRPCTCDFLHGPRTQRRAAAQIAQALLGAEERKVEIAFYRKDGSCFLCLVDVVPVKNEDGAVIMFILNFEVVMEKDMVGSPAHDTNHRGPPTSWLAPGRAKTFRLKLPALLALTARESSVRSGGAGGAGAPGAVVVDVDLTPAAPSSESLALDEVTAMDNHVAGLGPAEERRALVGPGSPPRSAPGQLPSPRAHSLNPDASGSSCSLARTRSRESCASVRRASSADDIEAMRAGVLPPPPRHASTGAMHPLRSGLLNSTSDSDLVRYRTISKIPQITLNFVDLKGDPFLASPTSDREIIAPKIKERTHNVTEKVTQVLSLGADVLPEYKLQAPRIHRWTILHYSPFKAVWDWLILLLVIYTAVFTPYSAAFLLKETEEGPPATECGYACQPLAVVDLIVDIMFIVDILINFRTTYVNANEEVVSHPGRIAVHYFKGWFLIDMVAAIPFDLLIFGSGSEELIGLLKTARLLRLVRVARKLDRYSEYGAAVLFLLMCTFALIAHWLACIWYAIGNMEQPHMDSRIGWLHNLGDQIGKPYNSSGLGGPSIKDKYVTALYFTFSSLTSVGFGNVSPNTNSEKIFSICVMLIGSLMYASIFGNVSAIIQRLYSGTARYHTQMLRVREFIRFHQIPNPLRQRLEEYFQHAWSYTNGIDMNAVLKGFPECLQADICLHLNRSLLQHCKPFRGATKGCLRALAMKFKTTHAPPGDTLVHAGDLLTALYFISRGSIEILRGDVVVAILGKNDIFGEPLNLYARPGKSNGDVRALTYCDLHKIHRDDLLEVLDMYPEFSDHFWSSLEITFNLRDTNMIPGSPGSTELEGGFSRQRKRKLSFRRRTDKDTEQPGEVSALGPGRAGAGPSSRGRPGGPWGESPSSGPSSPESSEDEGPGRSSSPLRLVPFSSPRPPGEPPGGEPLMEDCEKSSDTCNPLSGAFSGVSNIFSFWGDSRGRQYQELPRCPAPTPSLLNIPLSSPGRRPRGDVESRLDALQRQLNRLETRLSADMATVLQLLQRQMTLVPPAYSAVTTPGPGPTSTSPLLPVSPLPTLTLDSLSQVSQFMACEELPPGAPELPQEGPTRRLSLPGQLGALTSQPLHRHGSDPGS
# Sequence of Cytochrome P450 2C9 (P11712 whole entry): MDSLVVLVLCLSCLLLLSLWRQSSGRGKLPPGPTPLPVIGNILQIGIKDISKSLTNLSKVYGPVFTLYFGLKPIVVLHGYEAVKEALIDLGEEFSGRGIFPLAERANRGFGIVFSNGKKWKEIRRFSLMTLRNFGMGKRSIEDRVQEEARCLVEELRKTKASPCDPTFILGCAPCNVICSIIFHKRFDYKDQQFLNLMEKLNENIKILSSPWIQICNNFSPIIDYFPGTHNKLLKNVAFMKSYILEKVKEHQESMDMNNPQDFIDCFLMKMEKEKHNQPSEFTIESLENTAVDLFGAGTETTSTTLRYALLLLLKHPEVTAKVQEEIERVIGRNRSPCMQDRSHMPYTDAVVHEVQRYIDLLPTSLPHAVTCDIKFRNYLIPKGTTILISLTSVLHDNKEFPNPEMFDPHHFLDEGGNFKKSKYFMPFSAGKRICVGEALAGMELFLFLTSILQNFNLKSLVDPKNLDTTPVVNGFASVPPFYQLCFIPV
# Sequence of Kelch-like ECH-associated protein 1 (Q14145 whole entry, the tested form may be a part): as the sequence (Q14145 whole entry, the tested form may be a part) above
Structure (SMILES),IC50 (Keap1/Nrf2) [µM],Papp at 2 h [2] [×10⁻⁶ cm/s],"remaining at 1 h, 5 µM [3] [%]",also measured
COc1ccc(S(=O)(=O)Nc2ccc(N(CC(=O)N3CCSC3=O)S(=O)(=O)c3ccc(OC)cc3)c3ccccc23)cc1,–,–,–,bioavailability (in vivo): 68%
Cc1ccc([C@@H](NC(=O)[C@@H](F)c2ccc3c(c2)CCCC3)[C@@H](C)C(=O)O)cc1,0.26,33,–,Kd [1]: 0.13 µM
Cc1ccc([C@@H](NC(=O)Cc2ccc(Cn3ccccc3=O)cc2)[C@@H](C)C(=O)O)cc1,0.92,0.16,98,–
Cc1ccc(CC(=O)N[C@H](c2ccc(C)c(OCC3CCCCC3)c2)[C@@H](C)C(=O)O)cc1,10,17,–,–
Cc1ccc([C@@H](NC(=O)[C@@H](F)c2ccc(Cl)cc2)[C@@H](C)C(=O)O)cc1OCC(C)(C)C#N,–,–,–,IC50 [4]: > 30 µM; IC50 (Cytochrome P450 3A4): > 10 µM; IC50 (Cytochrome P450 1A2): > 10 µM; IC50 (Cytochrome P450 2C8): > 10 µM; IC50 (Cytochrome P450 2C9): 6.2 µM; IC50 (Cytochrome P450 2C19): > 10 µM; IC50 (Cytochrome P450 2D6): > 10 µM
CCCOc1cc([C@@H](NC(=O)Cc2ccc(C)cc2)[C@@H](C)C(=O)O)ccc1C,9.6,18,57,–
Cc1ccc(CC(=O)N[C@H](c2ccc(C)c(OCC(C)C)c2)[C@@H](C)C(=O)O)cc1,3.6,26,73,–
Cc1ccc(CC(=O)N[C@H](c2ccc(C)cc2)[C@@H](C)C(=O)O)cc1,20,8.8,97,–
Cc1ccc([C@@H](NC(=O)Cc2ccc(Cc3ncccc3C)cc2)[C@@H](C)C(=O)O)cc1.Cl,0.14,11,93,–
Cc1ccc([C@@H](NC(=O)Cc2ccc(CC3CCCCC3)cc2)[C@@H](C)C(=O)O)cc1,8.4,42,16,–
Cc1ccc(CC(=O)N[C@H](c2ccc(C)c(OCC(C)(C)C#N)c2)[C@@H](C)C(=O)O)cc1,0.078,1.4,43,–
Cc1ccc(CC(=O)N[C@H](c2ccc(C)c(OCC(C)(C)F)c2)[C@@H](C)C(=O)O)cc1,0.27,11,68,–
Cc1ccc([C@@H](NC(=O)Cc2ccc(CC3CC3)cc2)[C@@H](C)C(=O)O)cc1,15,15,93,–
Cc1ccc(CC(=O)N[C@H](c2ccc(C)c(OCC(C)(C)O)c2)[C@@H](C)C(=O)O)cc1,4.2,0.31,100,–
Cc1ccc([C@@H](NC(=O)Cc2ccc(Cc3cccc(C)n3)cc2)[C@@H](C)C(=O)O)cc1.Cl,0.17,2,94,–
Cc1ccc(CC(=O)N[C@H](c2ccc(C)c(OCC3CCCC3)c2)[C@@H](C)C(=O)O)cc1,5,21,–,–
Cc1ccc(CC(=O)N[C@H](c2ccc(C)c(OCC3(C#N)CC3)c2)[C@@H](C)C(=O)O)cc1,0.05,0.62,83,–
Cc1ccc([C@@H](NC(=O)Cc2ccc(Cc3cc(C)ccn3)cc2)[C@@H](C)C(=O)O)cc1.Cl,0.22,5.4,92,–
COc1cccnc1Cc1ccc(CC(=O)N[C@H](c2ccc(C)cc2)[C@@H](C)C(=O)O)cc1.Cl,0.1,7.1,91,–
Cc1ccc([C@@H](NC(=O)Cc2ccc(Cc3ccccn3)cc2)[C@@H](C)C(=O)O)cc1.Cl,0.36,5.7,94,–
Cc1ccc(CC(=O)N[C@H](c2ccc(C)c(OCc3ccccc3)c2)[C@@H](C)C(=O)O)cc1,13,21,74,–
Cc1ccc([C@@H](NC(=O)Cc2ccc(Cl)cc2)[C@@H](C)C(=O)O)cc1OCC(C)(C)C#N,0.091,1.2,90,–
Cc1ccc([C@@H](NC(=O)Cc2ccc(Cc3ccc(C)cn3)cc2)[C@@H](C)C(=O)O)cc1.Cl,0.2,5.4,97,–
CCOc1cccnc1Cc1ccc(CC(=O)N[C@H](c2ccc(C)cc2)[C@@H](C)C(=O)O)cc1,0.045,8.9,84,–
CCOc1cccnc1Cc1ccc([C@H](F)C(=O)N[C@H](c2ccc(C)cc2)[C@@H](C)C(=O)O)cc1,–,–,–,IC50 [4]: > 30 µM; IC50 (Cytochrome P450 3A4): > 10 µM; IC50 (Cytochrome P450 1A2): > 10 µM; IC50 (Cytochrome P450 2C8): > 10 µM; IC50 (Cytochrome P450 2C9): > 10 µM; IC50 (Cytochrome P450 2C19): > 10 µM; IC50 (Cytochrome P450 2D6): > 10 µM
Cc1ccc([C@@H](NC(=O)Cc2ccc(Cn3cccn3)cc2)[C@@H](C)C(=O)O)cc1,0.64,1.1,95,–
Cc1ccc([C@H](F)C(=O)N[C@H](c2ccc(C)c(OCC3(C#N)CC3)c2)[C@@H](C)C(=O)O)cc1,–,–,–,IC50 [4]: > 30 µM; IC50 (Cytochrome P450 3A4): > 10 µM; IC50 (Cytochrome P450 1A2): > 10 µM; IC50 (Cytochrome P450 2C8): > 10 µM; IC50 (Cytochrome P450 2C9): > 10 µM; IC50 (Cytochrome P450 2C19): > 10 µM; IC50 (Cytochrome P450 2D6): > 10 µM
Cc1ccc([C@@H](NC(=O)Cc2ccc(Cc3ccccc3)cc2)[C@@H](C)C(=O)O)cc1,2,24,79,–
